Laboratory results reported in patent publication US4393076A, “Anti-inflammatory and analgesic gel composition” (priority 1980, dated 1983).

Key:
gastric mucous membrane = experiment: Gastric mucous membrane troubles in rats (ulceration); type: in vivo, rats (Wister strain, male); conditions: oral, 1 mg/Kg, 6 hours
Procedure: Anti-inflammatory activity on gastric mucous membrane troubles in rats
Male rats of Wister strain, each weighing about 200 g, were fasted except for unlimited feeding of water for a time period of 24 hours, after which each of the test compounds shown in Table 4 was administered to the rats so fasted. […] Six hours after said administration, the test animals were slaughtered to remove their stomachs which were incised along the greater curvature thereof to visually observe whether or not an ulcer was formed at the gastric mucous membrane of their stomachs. The ulceration ratio (%) was calculated from the following equation: [formula]

[1] = for Stability: indomethacin: to alkalies, ketoprofen and flurbiprofen: to the gel base
[2] = orally administered; cited from earlier work

Structure (SMILES) | Ulceration ratio (gastric mucous membrane) [%] | Ulceration ratio (gastric mucous membrane; listed as indomethacin powder) [%] | Solubility in the gel base ([1]; in words) | Stability [1] | Crystallization ([1]; gel base, in words) | Medicinal efficacy compared with the effective ingredient of the composition of this invention [2]
COc1ccc2c(c1)c(CC(=O)O)c(C)n2C(=O)c1ccc(Cl)cc1 [Indomethacin powder] | 100.0 | 100 |  |  |  | 
CC(C(=O)O)c1ccc(-c2ccccc2)c(F)c1 (centres unmarked) [flurbiprofen] |  |  | excellent | excellent in stability |  | 
COc1ccc2c(c1)c(CC(=O)O)c(C)n2C(=O)c1ccc(Cl)cc1 [indomethacin] |  |  | inferior in solubility in the gel base | unstable to alkalies | apt to crystallize out | equal or slightly superior in medicinal efficacy
